# Results reported in patent US20260234163A1, “NOVEL COMPOUNDS AND USES THEREOF” (ACELINK THERAPEUTICS, INC., priority 2023, published 2026).
# Where two headings read alike, the source gives them in different places.
# Experiments:
# [1] = rcm bond, 21-membered ring, Grubbs II, DCM, 19.0 h
# Keap1-Nrf2 = target: T1, Keap1-Nrf2 (Homo sapiens, UniProt Q14145); assay: Keap1-Nrf2 Binding Inhibitory Activity Assay (fluorescence polarization, Keap1_FL + FITC-Nrf2 peptide); conditions: Keap1-FL, 60 min room temperature
# T1 construct: purchased Sino Biological 11981-H20B
# Method: Example 2.1 Keap1-Nrf2 Binding Inhibitory Activity Assay
# • PerkinElmer EnVision 2105 Multilabel Reader • PerkinElmer FITC FP dual emission Label 2100-8060 • LABCYTE Echo 650 • Corning 384-well microplate #4514 • Keap1_FL, Sino Biological, catalog 11981-H20B • FITC-Nrf2 peptide, GL Biochem, Lot No: p210427-XQ892761
# • a) Reference titration • 1. Keap1-Nrf2 Assay Buffer was prepared: 10 mM Tris-HCl pH 7.4, 150 mM NaCl, 50 mM EDTA, 0.05% Tween20, 0.1 mg/ml BSA (freshly add before use). • 2. 2.04× Tracer working solution was prepared: 2.04 nM FITC-Nrf2 peptide in Assay Buffer from 1 μM DMSO stock. • 3. 2× Protein working solution was prepared: 25 nM Keap1-FL in Assay Buffer. • 4. 100× compound working solutions with DMSO were prepared. Starting from 100 μM, serial 3-fold dilutions (10 points) were made by the Echo on the 384-well LDV microplate, then 200 nL of compounds, in duplicated wells, were transferred to a Corning 4514 plate. • 5. 9.8 μL per well of the Tracer working solution was added into the Corning 4514 plate. • 6. 10 μL per well of the Protein working solution was added into the Corning 4514 plate, except for the first two columns where Dilution Buffer were added to serve as “positive control”. • 7. The plate was incubated at room temperature for 60 min. • b) Read data on an EnVision with the following setting: Excitation Light (%): 84; Measurement Height: 9.4; G-Factor: 1; Detector Gain 1:220; Detector Gain 2: 220; Flash Number: 50.
# All the Test Compounds were considered as having Keap1-Nrf2 binding inhibitory activity.
# Nrf2 = Nrf2 Cellular Assay (pGL4.37[luc2P/ARE/Hygro] luciferase reporter in HepG2 cells); type: cell-based; conditions: ARE luciferase, 6 hours compound treatment
# Method: Example 2.2 Nrf2 Cellular Assay
# • 1. pGL4.37[luc2P/ARE/Hygro] vector was diluted to 25 ng/μL in Opti-MEM. • 2. Lipofectamine 3000 was added to a 2:1 lipid:DNA. The mixture was mixed by pipetting and incubate at room temperature for 15 minutes. • 3. HepG2 cells were cultured in complete medium (DMEM+10% FBS). • 4. Trypsin was added to the cells, which were filtered via a cell strainer to remove cell cluster, the cells were then quantified and diluted to 2×10^5 cells/ml in complete medium. • 5. The cells and plasmid were mixed, seeded to 384-well plate 50 μL per well (50 ng DNA/well) and incubated for 24 hours in a 37° C., 5% CO2 incubator.
# • 1. Medium was removed from cells and replaced with 36 μL of DMEM+10% FBS per well. • 2. Incubated overnight in a 37° C., 5% CO2 incubator.
# • 1. Test compound was serially diluted tin DMSO, and further diluted with DMEM (contains 10% FBS) to 10× final concentration. • 2. 4 μL of the 10× compound was added to each well, the plate was shaken for 10 sec on a plate shaker and incubated for 6 hours in a 37° C., 5% CO2 incubator.
# • 1. Plates were removed from the 37° C., 5% CO2 incubator and allowed to cool to room temperature for approximately 15 minutes. • 2. 40 μL of the Glo Luciferase Assay System detection reagents were added, and the plate was shaken for 3 min and luminescence was measured.
IC50 (Keap1-Nrf2),"EC50 (Nrf2; Homo sapiens, HepG2, 6 h)",EC50 (Nrf2),SMILES,"ring closure, isolated yield ([1]; from C=CCOc1ccc(S(=O)(=O)N2CCc3ccc(C(CC(=O)OCC)c4ccc5c(nnn5C/C=C/C)c4C)cc3C2)cc1, 40.0 mM, 25.0 °C)","ring closure, isolated yield ([1]; from C=CCCCn1nnc2c(Cl)c(C(CC(=O)OCc3ccccc3)c3ccc4c(c3)CN(C(=O)N3CCC(C=C)CC3)CC4)ccc21, 53.3 mM)"
≤ 100 nM,10 to 30 µM,,"O=C(O)CC1c2ccc3c(c2)CN(CC3)C(=O)N2CCC(CCCCCn3nnc4cc1cnc43)CC2 (single isomer, unassigned) [Compound 53]",,
≤ 100 nM,,≤ 10 µM,"O=C(O)CC1c2ccc3c(c2)CN(CC3)C(=O)N2CCC(CCCCCn3nnc4cc1cnc43)CC2 (single isomer, unassigned) [Compound 54]",,
100 to 1000 nM,> 30 µM,,"Cc1c2ccc3c1nnn3CCCCCN1CCN(CC1)C(=O)N1CCc3ccc(cc3C1)C2CC(=O)O (centres unmarked) [Compound 5, 2-(carboxymethyl)-1^4-methyl-4-oxo-3^1,3^2,3^3,3^4-tetrahydro-1^1H-3(7,2)-isoquinolina-1(5,1)-benzo[d][1,2,3]triazola-5(4,1)-piperazin-1-iumacyclodecaphan-5^1-ium chloride]",,
≤ 100 nM,≤ 10 µM,,"Cc1c2ccc3c1nnn3CCCCOC1CCN(CC1)C(=O)N1CCc3ccc(cc3C1)C2CC(=O)O (centres unmarked) [Compound 10, 2-(1^4-methyl-4-oxo-3^1,3^2,3^3,3^4-tetrahydro-1^1H-6-oxa-3(7,2)-isoquinolina-1(5,1)-benzo[d][1,2,3]triazola-5(1,4)-piperidinacyclodecaphane-2-yl)acetic acid]",,
≤ 100 nM,≤ 10 µM,,"Cc1c2ccc3c1nnn3CCCOCC1CCN(CC1)C(=O)N1CCc3ccc(cc3C1)C2CC(=O)O (centres unmarked) [Compound 12, 2-(1^4-methyl-4-oxo-3^1,3^2,3^3,3^4-tetrahydro-1^1H-7-oxa-3(7,2)-isoquinolina-1(5,1)-benzo[d][1,2,3]triazola-5(1,4)-piperidinacyclodecaphane-2-yl)acetic acid]",,
≤ 100 nM,≤ 10 µM,,"Cc1c2ccc3c1nnn3CCCCCC1CCN(CC1)C(=O)N1CCc3ccc(cc3C1)C2CC(=O)O (centres unmarked) [Compound 14, 2-(1^4-methyl-4-oxo-3^1,3^2,3^3,3^4-tetrahydro-1^1H-3(7,2)-isoquinolina-1(5,1)-benzo[d][1,2,3]triazola-5(1,4)-piperidinacyclodecaphane-2-yl)acetic acid]",,
≤ 100 nM,≤ 10 µM,,"O=C(O)CC1c2ccc3c(c2)CN(CC3)C(=O)N2CCC(CCCCCn3nnc4c(Cl)c1ccc43)CC2 (centres unmarked) [Compound 30, 2-(1^4-chloro-4-oxo-3^1,3^2,3^3,3^4-tetrahydro-1^1H-3(7,2)-isoquinolina-1(5,1)-benzo[d][1,2,3]triazola-5(1,4)-piperidinacyclodecaphane-2-yl)acetic acid]",,
≤ 100 nM,≤ 10 µM,,Cc1c2ccc3c1nnn3CCCCCC1CCC(CC1)C(=O)N1CCc3ccc(cc3C1)C2CC(=O)O (centres unmarked) [Compound 35],,
≤ 100 nM,10 to 30 µM,,Cc1c2ccc3c1nnn3CCCCCCCCN(C)C(=O)N1CCc3ccc(cc3C1)C2CC(=O)O (centres unmarked) [Compound 40],,
≤ 100 nM,≤ 10 µM,,"O=C(O)CC1c2ccc3c(c2)CN(CC3)C(=O)C2CCC(CCCCCn3nnc4cc1cnc43)CC2 (centres unmarked) [Compound 55, 2-(4-oxo-31,32,33,34-tetrahydro-13H-3(7,2)-isoquinolina-1(6,3)-[1,2,3]triazolo[4,5-b]pyridina-5(1,4)-cyclohexanacyclodecaphane-2-yl)acetic acid]",,
≤ 100 nM,10 to 30 µM,,"O=C(O)CC1c2ccc3c(c2)CN(CC3)C(=O)C2CCC(CCCCn3nnc4cc1cnc43)CC2 (centres unmarked) [Compound 56, 2-(4-oxo-31,32,33,34-tetrahydro-13H-3(7,2)-isoquinolina-1(6,3)-[1,2,3]triazolo[4,5-b]pyridina-5(1,4)-cyclohexanacyclononaphane-2-yl)acetic acid]",,

# The remaining lines, values behind:
SMILES,IC50 (Keap1-Nrf2),"EC50 (Nrf2; Homo sapiens, HepG2, 6 h)",EC50 (Nrf2),"ring closure, isolated yield ([1]; from C=CCOc1ccc(S(=O)(=O)N2CCc3ccc(C(CC(=O)OCC)c4ccc5c(nnn5C/C=C/C)c4C)cc3C2)cc1, 40.0 mM, 25.0 °C)","ring closure, isolated yield ([1]; from C=CCCCn1nnc2c(Cl)c(C(CC(=O)OCc3ccccc3)c3ccc4c(c3)CN(C(=O)N3CCC(C=C)CC3)CC4)ccc21, 53.3 mM)"
CCOC(=O)CC1c2ccc3c(c2)CN(CC3)S(=O)(=O)c2ccc(cc2)OCC=CCn2nnc3c(C)c1ccc32 (centres unmarked),,,,12.9%,
O=C(CC1c2ccc3c(c2)CN(CC3)C(=O)N2CCC(C=CCCCn3nnc4c(Cl)c1ccc43)CC2)OCc1ccccc1 (centres unmarked),,,,,13.3%
"Cc1ccc2cc1CN(C)C(=O)c1ccc(cc1)COCCCn1nnc3c(C)c(ccc31)C2CC(=O)O (single isomer, unassigned) [Compound 17, 2-(1^4,3^4,5-trimethyl-6-oxo-1^1H-9-oxa-5-aza-1(5,1)-benzo[d][1,2,3]triazola-3(1,3), 7(1,4)-dibenzenacyclododecaphane-2-yl)acetic acid]",1000 to 10000 nM,> 30 µM,,,
"Cc1c2ccc3c1nnn3CCOCCOc1ccc(cc1)S(=O)(=O)N1CCc3ccc(cc3C1)C2CC(=O)O (centres unmarked) [Compound 1, tert-butyl 2-(1^4-methyl-4,4-dioxido-3^1,3^2,3^3,3^4-tetrahydro-1^1H-6,9-dioxa-4-thia-3(7,2)-isoquinolina-1(5,1)-benzo[d][1,2,3]triazola-5(1,4)-benzenacycloundecaphane-2-yl)acetic acid]",100 to 1000 nM,> 30 µM,,,
"Cc1c2ccc3c1nnn3CCCCCN1CCC(CC1)C(=O)N1CCc3ccc(cc3C1)C2CC(=O)O (centres unmarked) [Compound 2, 2-(carboxymethyl)-1^4-methyl-4-oxo-3^1,3^2,3^3,3^4-tetrahydro-1^1H-3(7,2)-isoquinolina-1(5,1)-benzo[d][1,2,3]triazola-5(4,1)-piperidin-1-iumacyclodecaphan-5^1-ium chloride]",1000 to 10000 nM,> 30 µM,,,
"Cc1c2ccc3c1nnn3CCOCCN1CCC(CC1)C(=O)N1CCc3ccc(cc3C1)C2CC(=O)O (centres unmarked) [Compound 3, 2-(carboxymethyl)-1^4-methyl-4-oxo-3^1,3^2,3^3,3^4-tetrahydro-1^1H-8-oxa-3(7,2)-isoquinolina-1(5,1)-benzo[d][1,2,3]triazola-5(4,1)-piperidin-1-iumacyclodecaphan-5^1-ium chloride]",1000 to 10000 nM,> 30 µM,,,
"Cc1cc2cc3c1CCN(C3)C(=O)c1ccc(cc1)COCCCn1nnc3c(C)c(ccc31)C2CC(=O)O (centres unmarked) [Compound 4, 2-(1^4,3^5-dimethyl-4-oxo-3^1,3^2,3^3,3^4-tetrahydro-1^1H-7-oxa-3(7,2)-isoquinolina-1(5,1)-benzo[d][1,2,3]triazola-5(1,4)-benzenacyclodecaphane-2-yl)acetic acid]",≤ 100 nM,≤ 10 µM,,,
"Cc1c2ccc3c1nnn3CCCOCc1ccc(cc1)C(=O)N(C)Cc1cccc(c1)C2CC(=O)O (centres unmarked) [Compound 7, 2-(1^4,5-dimethyl-6-oxo-1^1H-9-oxa-5-aza-1(5,1)-benzo[d][1,2,3]triazola-3(1,3), 7(1,4)-dibenzenacyclododecaphane-2-yl)acetic acid]",≤ 100 nM,10 to 30 µM,,,
"Cc1c2ccc3c1nnn3CCOCCN1CCN(CC1)C(=O)c1ccc3ccc(cc3c1)C2CC(=O)O (centres unmarked) [Compound 8, 2-(1^4-methyl-4-oxo-1^1H-8-oxa-1(5,1)-benzo[d][1,2,3]triazola-5(1,4)-piperazina-3(2,7)-naphthalenacyclodecaphane-2-yl)acetic acid]",1000 to 10000 nM,> 30 µM,,,
"Cc1c2ccc3c1nnn3C/C=C\COC1CCN(CC1)C(=O)N1CCc3ccc(cc3C1)C2CC(=O)O (centres unmarked) [Compound 11, (Z)-2-(1^4-methyl-4-oxo-3^1,3^2,3^3,3^4-tetrahydro-1^1H-6-oxa-3(7,2)-isoquinolina-1(5,1)-benzo[d][1,2,3]triazola-5(1,4)-piperidinacyclodecaphan-8-en-2-yl)acetic acid]",≤ 100 nM,≤ 10 µM,,,
Cc1c2ccc3c1nnn3CCCCC1CCC(CC1)C(=O)N1CCc3ccc(cc3C1)C2CC(=O)O (centres unmarked) [Compound 34],≤ 100 nM,≤ 10 µM,,,
Cc1c2ccc3c1nnn3CCCCCC1CCC(CC1)C(=O)N(C)Cc1cccc(c1)C2CC(=O)O (centres unmarked) [Compound 37],100 to 1000 nM,≤ 10 µM,,,
